Source: ChEMBL document CHEMBL1201862, “PubChem BioAssay data set” (2004)
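All cell lines were grown in 96-well plates and treated with compound for 48 hours. The concentration for 50% growth inhibition is given as GI50.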 Active and inactive are the calls of the source. Rule as the data show it: active = GI50 up to about 1.1 µM and inactive = higher.

How the values were obtained:
Assay in all cases: NCI-60 cell line screen, 48 h
CCRF-CEM = tested on: CCRF-CEM
COLO 205 = tested on: COLO 205
HT-29 = tested on: HT-29
MOLT-4 = tested on: MOLT-4
SK-MEL-28 = tested on: SK-MEL-28
NCI-H23 = tested on: NCI-H23
SF-268 = tested on: SF-268
IGROV-1 = tested on: IGROV-1
SK-MEL-2 = tested on: SK-MEL-2
786-0 = tested on: 786-0
Malme-3M = tested on: Malme-3M
M14 = tested on: M14
A498 = tested on: A498
SW-620 = tested on: SW-620
RXF 393 = tested on: RXF 393
TK-10 = tested on: TK-10
DMS-114 = tested on: DMS-114
UACC-257 = tested on: UACC-257
CAKI-1 = tested on: CAKI-1
U-251 = tested on: U-251
HCT-116 = tested on: HCT-116
EKVX = tested on: EKVX
SF-539 = tested on: SF-539
HL-60 = tested on: HL-60
SNB-78 = tested on: SNB-78
KM-20L2 = tested on: KM-20L2
A549 = tested on: A549
NCI-H460 = tested on: NCI-H460
LOX IMVI = tested on: LOX IMVI
NCI-H522 = tested on: NCI-H522
NCI-H226 = tested on: NCI-H226
SN12C = tested on: SN12C
HCC 2998 = tested on: HCC 2998
M19-MEL = tested on: M19-MEL
SR = tested on: SR
HOP-62 = tested on: HOP-62
UO-31 = tested on: UO-31
DMS-273 = tested on: DMS-273
K562 = tested on: K562
HCT-15 = tested on: HCT-15
RPMI-8226 = tested on: RPMI-8226
OVCAR-8 = tested on: OVCAR-8
SNB-19 = tested on: SNB-19
DLD-1 = tested on: DLD-1
SK-MEL-5 = tested on: SK-MEL-5
SF-295 = tested on: SF-295
OVCAR-4 = tested on: OVCAR-4
OVCAR-5 = tested on: OVCAR-5
LXFL 529 = tested on: LXFL 529
KM12 = tested on: KM12
UACC-62 = tested on: UACC-62
HOP-92 = tested on: HOP-92
SK-OV-3 = tested on: SK-OV-3
SNB-75 = tested on: SNB-75
ACHN = tested on: ACHN

Structure (SMILES): CC(=O)C(CN(C)Cc1ccccc1)C(c1ccccc1)c1c(O)c2ccccc2oc1=O (stereo not given)
- GI50 (CCRF-CEM): > 100 µM (inactive)
- GI50 (COLO 205): > 100 µM (inactive)
- GI50 (HT-29): > 100 µM (inactive)
- GI50 (MOLT-4): > 100 µM (inactive)
- GI50 (SK-MEL-28): > 100 µM (inactive)
- GI50 (NCI-H23): > 100 µM (inactive)
- GI50 (SF-268): > 100 µM (inactive)
- GI50 (IGROV-1): > 100 µM (inactive)
- GI50 (SK-MEL-2): > 100 µM (inactive)
- GI50 (786-0): > 100 µM (inactive)
- GI50 (Malme-3M): > 100 µM (inactive)
- GI50 (M14): > 100 µM (inactive)
- GI50 (A498): > 100 µM (inactive)
- GI50 (SW-620): > 100 µM (inactive)
- GI50 (RXF 393): > 100 µM (inactive)
- GI50 (TK-10): > 100 µM (inactive)
- GI50 (DMS-114): > 100 µM (inactive)
- GI50 (UACC-257): > 100 µM (inactive)
- GI50 (CAKI-1): > 100 µM (inactive)
- GI50 (U-251): > 100 µM (inactive)
- GI50 (HCT-116): > 100 µM (inactive)
- GI50 (EKVX): > 100 µM (inactive)
- GI50 (SF-539): > 100 µM (inactive)
- GI50 (HL-60): 52.5 µM (inactive)
- GI50 (SNB-78): > 100 µM (inactive)
- GI50 (KM-20L2): 55.8 µM (inactive)
- GI50 (A549): > 100 µM (inactive)
- GI50 (NCI-H460): > 100 µM (inactive)
- GI50 (LOX IMVI): > 100 µM (inactive)
- GI50 (NCI-H522): 80.4 µM (inactive)
- GI50 (NCI-H226): 10.4 µM (inactive)
- GI50 (SN12C): > 100 µM (inactive)
- GI50 (HCC 2998): > 100 µM (inactive)
- GI50 (M19-MEL): > 100 µM (inactive)
- GI50 (SR): > 100 µM (inactive)
- GI50 (HOP-62): > 100 µM (inactive)
- GI50 (UO-31): 16.6 µM (inactive)
- GI50 (DMS-273): > 100 µM (inactive)
- GI50 (K562): > 100 µM (inactive)
- GI50 (HCT-15): > 100 µM
- GI50 (RPMI-8226): 58.6 µM (inactive)
- GI50 (OVCAR-8): > 100 µM (inactive)
- GI50 (SNB-19): 11 µM (inactive)
- GI50 (DLD-1): > 100 µM (inactive)
- GI50 (SK-MEL-5): > 100 µM (inactive)
- GI50 (SF-295): > 100 µM (inactive)
- GI50 (OVCAR-4): > 100 µM (inactive)
- GI50 (OVCAR-5): > 100 µM (inactive)
- GI50 (LXFL 529): > 100 µM (inactive)
- GI50 (KM12): > 100 µM (inactive)
- GI50 (UACC-62): > 100 µM (inactive)
- GI50 (HOP-92): 31.9 µM (inactive)
- GI50 (SK-OV-3): > 100 µM (inactive)
- GI50 (SNB-75): > 100 µM (inactive)
- GI50 (ACHN): > 100 µM (inactive)
